{
  "source": "patent US5891622A",
  "about": "“Assessment of oxidative stress in vivo” (Oxford Biomedical Research, Inc., priority 1998, dated 1999)",
  "key": {"[1]": {"test_system": "anti-8EPGF2 IgG", "assay": "specificity / cross-reactivity of anti-8EPGF2 IgG (competitive ELISA)", "format": "binding, goat", "conditions": "for cross-reaction with anti-8EPGF2 IgG (in words) / cross-reaction with anti-8EPGF2 IgG: 8EPGF2 ELISA", "procedure": "The IgG bound to the protein G column was eluted with 50 mM glycine-HCl buffer, pH 2.5, and immediately neutralized with 0.5M Tris-HCl, pH 7.6.\nHigh-binding strip well microplates (Labsystems, Inc., Marlboro, Ma.) were coated with protein G-purified IgG suspended in 1M carbonate, pH 9.0, (1 μg/well; 200 μL/well final volume) and then covered with parafilm. After overnight incubation at room temperature, the wells were gently washed five times with tris buffered saline (TBS), pH 7.5, containing 0.1% tween. Non-specific sites were blocked by the addition of 0.2 mL of 5% (w/v) nonfat dry milk in TBS. After 2 hours of incubation at room temperature, the plates were washed three times with TBS-tween. […] Following incubation for 1 hour to permit competitive binding to bound antibody, unbound material was removed by thoroughly washing the wells with TBS-tween and 150 μL of a calorimetric substrate for HRP [3,3',5,5'tetramethylbenzidine (TMB) with hydrogen peroxide] (ELISA Technologies) was added. After incubation of the plate for 20 minutes, the reaction is stopped by addition of 75 μL of 1N H2 SO4, and the absorbance at 450 nm determined using a microtiter plate reader. Under these assay conditions, the amount of color in a well is inversely proportional to the initial concentration of the sample or standard ligand."}, "[2]": {"test_system": "anti-8EPGF2 IgG", "assay": "immunoaffinity column retention of 8EPGF2 on anti-8EPGF2 IgG resin", "format": "binding, goat", "conditions": "up to 10 ng 8EPGF2 applied", "procedure": "Reacti-gel was obtained from Pierce Co. and anti-8EPGF2 immunoaffinity column was prepared according to the manufacturer's instruction. […] In each experiment samples were diluted to concentrations lower than the capacity of the column (~0.5 ng/100 μL) prior to application to the column.\nUrine samples were applied to immunoaffinity columns, which were then eluted with acetonitrile:water (1:3), followed by acetone:water (90:10). The eluates were then processed and analyzed using the standard GC/MS protocol as described herein above. […] PGF2α has a slightly longer retention time than the [^2 H4 ]-PGF2α (the internal control) shown in the bottom chromatograms of FIG. 4A and 4B, because protium runs faster than deuterium on GC [Wendelborn et al, 1990]. The six peaks with m/z=569 are numbered by the order of elution and the elution time of each peak was divided by the elution time of internal standard, [^2 H4 ]-PGF2α, obtained at m/z=573 to calculate relative elution time of each peak. […] The identity of Peak I, II, III, and VI is not known."}, "[3]": {"test_system": "vasoconstriction", "conditions": "cited from earlier work"}, "[4]": {"conditions": "aqueous solution, non-enzymatic rearrangement to PGD2 and PGE2; cited from earlier work"}},
  "data": [
    {"smiles": "CCCCC[C@H](O)/C=C/[C@@H]1[C@@H](CC(=O)CCCCC(=O)O)[C@@H](O)C[C@H]1O", "note": "[6-keto-PGF1α]", "values": [
      {"measurement": "cross-reaction with anti-8EPGF2 IgG (in words)", "setting": "[1]", "result": "did not cross-react"}
    ]},
    {"smiles": "CCCCC[C@H](O)/C=C/[C@@H]1[C@H](CCCCCCC(=O)O)[C@@H](O)C[C@H]1O", "note": "[8-epi-PGF1α, 5,6-dihydro-8-iso-PGF2α]", "values": [
      {"measurement": "cross-reaction with anti-8EPGF2 IgG (in words)", "setting": "[1]", "result": "did not cross-react"}
    ]},
    {"smiles": "CCCCC[C@H](O)/C=C/[C@@H]1[C@H](CCCCCCC(=O)O)[C@H](O)C[C@H]1O", "note": "[8-epi-PGF1β]", "values": [
      {"measurement": "cross-reaction with anti-8EPGF2 IgG (in words)", "setting": "[1]", "result": "did not cross-react"}
    ]},
    {"smiles": "CCCCC[C@H](O)/C=C/[C@@H]1[C@H](C/C=C\\CCCC(=O)O)[C@@H](O)C[C@H]1O", "note": "[8EPGF2, 8-epi-prostaglandin F2α]", "values": [
      {"measurement": "recognition by anti-8EPGF2 antibody (in words)", "setting": "[1]; polyclonal antibody, ELISA", "result": "recognized"},
      {"measurement": "applied 8EPGF2 bound to antibody cross-linked to resin", "setting": "[2]", "result": "higher than 98%"},
      {"measurement": "unbound 8EPGF2", "setting": "[2]; 100 μl resin", "result": "lower than 2%"},
      {"measurement": "vasoconstrictor property (in words)", "setting": "[3]", "result": "vasoconstrictor property"},
      {"measurement": "effect of high serum concentration on renal arteries (in words)", "setting": "[3]; hepatorenal syndrome patients", "result": "intense vasoconstriction of renal arteries"}
    ]},
    {"smiles": "CCCCC[C@H](O)/C=C/[C@@H]1[C@@H](C/C=C\\CCCC(=O)O)[C@@H](O)C[C@@H]1O", "note": "[9α-11β-PGF2]", "values": [
      {"measurement": "cross-reaction with anti-8EPGF2 IgG", "setting": "[1]", "result": 4.1, "unit": "%"}
    ]},
    {"smiles": "CCCCC[C@H](O)/C=C/[C@@H]1[C@@H](C/C=C\\CCCC(=O)O)[C@H](O)C[C@H]1O", "note": "[9β-11α-PGF2α]", "values": [
      {"measurement": "cross-reaction with anti-8EPGF2 IgG (in words)", "setting": "[1]", "result": "did not cross-react"}
    ]},
    {"smiles": "CCCCC[C@H](O)/C=C/[C@@H]1[C@@H](CCCCCCC(=O)O)[C@H](O)C[C@@H]1O", "note": "[11β-PGF1β]", "values": [
      {"measurement": "cross-reaction with anti-8EPGF2 IgG (in words)", "setting": "[1]", "result": "did not cross-react"}
    ]},
    {"smiles": "CCCCC[C@H](O)CC[C@@H]1[C@@H](CCCCCCC(=O)O)[C@@H](O)C[C@H]1O", "note": "[13,14-dihydro-PGF1α]", "values": [
      {"measurement": "cross-reaction with anti-8EPGF2 IgG (in words)", "setting": "[1]", "result": "did not cross-react"}
    ]},
    {"smiles": "CCCCCC(=O)CC[C@@H]1[C@@H](CCCCCCC(=O)O)[C@@H](O)C[C@H]1O", "note": "[13-14-dihydro-15-keto-PGF1α]", "values": [
      {"measurement": "cross-reaction with anti-8EPGF2 IgG (in words)", "setting": "[1]", "result": "did not cross-react"}
    ]},
    {"smiles": "CCCCCC(=O)CC[C@@H]1[C@@H](C/C=C\\CCCC(=O)O)[C@@H](O)C[C@H]1O", "note": "[13-14-dihydro-15-keto-PGF2α]", "values": [
      {"measurement": "cross-reaction with anti-8EPGF2 IgG", "setting": "[1]", "result": 3, "unit": "%"}
    ]},
    {"smiles": "CCCCC[C@H](O)/C=C/[C@H]1C(=O)C[C@H](O)[C@@H]1C/C=C\\CCCC(=O)O", "note": "[PGD2]", "values": [
      {"measurement": "cross-reaction with anti-8EPGF2 IgG (in words)", "setting": "[1]", "result": "did not cross-react"}
    ]},
    {"smiles": "CCCCC[C@H](O)/C=C/[C@@H]1[C@@H](CCCCCCC(=O)O)[C@H](O)C[C@H]1O", "note": "[PGF1β]", "values": [
      {"measurement": "cross-reaction with anti-8EPGF2 IgG (in words)", "setting": "[1]", "result": "did not cross-react"}
    ]},
    {"smiles": "CCCCC[C@H](O)/C=C/[C@@H]1[C@@H](C/C=C\\CCCC(=O)O)[C@@H](O)C[C@H]1O", "note": "[PGF2α]", "values": [
      {"measurement": "cross-reaction with anti-8EPGF2 IgG (in words)", "setting": "[1]", "result": "did not cross-react"}
    ]},
    {"smiles": "CCCCC/C=C\\C/C=C\\C/C=C\\C/C=C\\CCCC(=O)O", "note": "[arachidonic acid]", "values": [
      {"measurement": "cross-reaction with anti-8EPGF2 IgG (in words)", "setting": "[1]", "result": "did not cross-react"}
    ]},
    {"smiles": "CCCCC[C@H](O)/C=C/[C@H]1[C@H](O)CC(=O)[C@@H]1C/C=C\\CCCC(=O)O", "note": "[prostaglandin E2]", "values": [
      {"measurement": "cross-reaction with anti-8EPGF2 IgG (in words)", "setting": "[1]", "result": "did not cross-react"}
    ]},
    {"smiles": "CCCCC[C@@H](/C=C/[C@@H]1[C@@H](C/C=C\\CCCC(=O)O)[C@@H]2C[C@H]1OO2)OO", "note": "[prostaglandin G2]", "values": [
      {"measurement": "t1/2", "setting": "[4]", "result": "~ 5 minutes"}
    ]},
    {"smiles": "CCCCC[C@H](O)/C=C/[C@@H]1[C@@H](C/C=C\\CCCC(=O)O)[C@@H]2C[C@H]1OO2", "note": "[prostaglandin H2]", "values": [
      {"measurement": "t1/2", "setting": "[4]", "result": "~ 5 minutes"}
    ]}
  ]
}
